Measurements reported in US20090304654A1, “METHODS FOR ISOLATING ADIPOSE-DERIVED STEM CELLS AND THERAPEUTIC USE THEREOF” (REGENTS OF THE UNIVERSITY OF CALIFORNIA, priority 2008, published 2009).

Test system: RADSC-1 cells
Assay: Endothelial-inducing factors: LDL-uptake and endothelial markers of ADSC in subtraction/addition media and with FGFR inhibitor
Format: cell-based, rat
Settings: for LDL-uptake ability on omission of the factor from EGM2: one week in subtraction EGM2; for LDL-uptake ability in EBM2 supplemented with the factor: one week in addition media
Protocol: RADSC-1 cells were grown in fully or partially supplemented EGM2 and then assayed for LDL-uptake. Each partially supplemented EGM2 is indicated by the omitted factor; for example, “−FGF” denotes EGM2 without FGF2. Experiments were repeated 3 times.
RADSC-1 cells were grown in EGM2, EBM2, or EBM2 supplemented with the indicated factor, and then assayed for LDL-uptake. Experiments were repeated 3 times.
RADSC-1 cells were grown in EGM2 or EBM2 supplemented with FGF2 and vitamin C in the presence or absence of FGFR inhibitor PD173074. The cells were then assayed for LDL-uptake. Red color indicates the presence of LDL, which was in a conjugated form with the red fluorescence dye DiI. RADSC-1 cells were also grown in VEGF/vitamin C-supplemented EBM2 for the purpose of excluding the involvement of VEGF signaling, as PD173074 is known to have a weak inhibitory effect on VEGF receptor. Experiments were repeated 3 times.
EGM2 medium is supplied by the manufacturer in the form of a basal medium (EBM2) and individual vials of supplemental factors. […] Specifically, we prepared “subtraction” EGM2 media by omitting one supplemental factor at a time.
The above experiments identified FGF2 as the only growth factor required for the induction of ADSC's LDL-uptake ability. We then tested whether FGF2 was able to induce the expression of additional endothelial characteristics. RADSC-1 cells were grown in DMEM, EGM2, or EBM2 supplemented with FGF2 and vitamin C. They were then stained for endothelial markers CD31, vWF, and eNOS, and tested for tube formation.
In the absence of PD173074 (with the addition of solvent only), cells grown in either the completely supplemented EGM2 or the FGF2/vitamin C-supplemented EBM2 acquired the LDL-uptake ability (FIG. 23).

Molecule: CCN(CC)CCCCNc1ncc2cc(-c3cc(OC)cc(OC)c3)c(NC(=O)NC(C)(C)C)nc2n1 [PD173074]
- acquisition of LDL-uptake ability in the presence of inhibitor (cells in EGM2 or FGF2/vitamin C-supplemented EBM2): unable to do so

Molecule: C[C@]12CCC(=O)C=C1CC[C@@H]1[C@@H]2[C@@H](O)C[C@@]2(C)[C@H]1CC[C@]2(O)C(=O)CO [hydrocortisone]
- LDL-uptake ability on omission of the factor from EGM2: essentially no effect

Molecule: O=C1O[C@H]([C@@H](O)CO)C(O)=C1O [vitamin C]
- LDL-uptake ability in EBM2 supplemented with the factor: still somewhat effective, but at a much reduced level
- LDL-uptake ability on omission of the factor from EGM2: greatly diminished LDL-uptake ability

Molecule: EGF: epidermal growth factor, supplement of EGM2 (NSDSECPLSHDGYCLHDGVCMYIEALDKYACNCVVGYIGERCQYRDLKWWELR; UniProt P01133 971-1023, looked up)
- LDL-uptake ability on omission of the factor from EGM2: essentially no effect

Molecule: FGF2: growth factor supplement of EGM2
- LDL-uptake ability in EBM2 supplemented with the factor: still effective, albeit at a reduced level
- LDL-uptake ability on omission of the factor from EGM2: greatly diminished LDL-uptake ability

Molecule: VEGF
- LDL-uptake ability on omission of the factor from EGM2: essentially no effect

Molecule: heparin
- LDL-uptake ability on omission of the factor from EGM2: essentially no effect
